How the values were obtained:
Format in all cases: cell-based
Candida organisms = assay: NIC assay, summary for Candida; settings: result in words
From the text: (§1) Thus, lower levels of such antimicrobial agent may be used in the present invention if it intended that such antimicrobial agent is being included principally to provide anti-Candida activity, to supplement the gap in the spectrum of activity of nisin.

Bact. ureolyticus = assay: nominal inhibitory concentration (NIC) assay
[1] = test system: all the organisms shown in the Example 25 Table 1; assay: NIC assay, summary over all organisms of Table 1; settings: all organisms of Example 25 Table 1 (for CPC: kills all the organisms)
From the text: as §1

Act. naeslundii = assay: nominal inhibitory concentration (NIC) assay
Candida kefyr = assay: nominal inhibitory concentration (NIC) assay
Bact. intermedius = assay: nominal inhibitory concentration (NIC) assay
Strep.pyogenes = assay: nominal inhibitory concentration (NIC) assay
Act. odontolyticus = assay: nominal inhibitory concentration (NIC) assay
Candida albicans = assay: nominal inhibitory concentration (NIC) assay
Strep. mitis = assay: nominal inhibitory concentration (NIC) assay
G.vaginalis = assay: nominal inhibitory concentration (NIC) assay
Peptostrepto. micros = assay: nominal inhibitory concentration (NIC) assay
Porph. gingivalis = assay: nominal inhibitory concentration (NIC) assay
Strep. agalactiæ = assay: nominal inhibitory concentration (NIC) assay
Strep. milleri = assay: nominal inhibitory concentration (NIC) assay
Strep mitior = assay: nominal inhibitory concentration (NIC) assay
Candida tropicalis = assay: nominal inhibitory concentration (NIC) assay
Lacto odontolyticus = assay: nominal inhibitory concentration (NIC) assay
Fuso. nucleatum = assay: nominal inhibitory concentration (NIC) assay
Strep. salivarius = assay: nominal inhibitory concentration (NIC) assay
Strep. sanguis = assay: nominal inhibitory concentration (NIC) assay
Act. actinomycetem = assay: nominal inhibitory concentration (NIC) assay
Act. israelii = assay: nominal inhibitory concentration (NIC) assay
F nucleatum NCTC 10562 = assay: zone diffusion assay; settings: solution with 500ppm of each agent
From the text: (§2) The assay was repeated for each of cetyl pyridinium chloride, chlorhexidine or triclosan individually. […]

A actinomyces NCTC 9709 = assay: zone diffusion assay; settings: solution with 500ppm of each agent
From the text: as §2

C albicans NCTC 3089 = assay: zone diffusion assay; settings: solution with 500ppm of each agent
From the text: as §2

W recta NCTC 11489 = assay: zone diffusion assay; settings: solution with 500ppm of each agent
From the text: as §2

C tropicalis NCTC 3114 = assay: zone diffusion assay; settings: solution with 500ppm of each agent
From the text: as §2

S sanguis NCTC 10904 = assay: zone diffusion assay; settings: solution with 500ppm of each agent
From the text: as §2

C kefyr NCTC 3106 = assay: zone diffusion assay; settings: solution with 500ppm of each agent
From the text: as §2

S mutans NCTC 11061 = assay: zone diffusion assay; settings: solution with 500ppm of each agent
From the text: as §2

Staph.aureus = assay: nominal inhibitory concentration (NIC) assay
Strep.mutans = assay: nominal inhibitory concentration (NIC) assay

nisin [Ambicin N]
inhibitory activity against candida species (Candida organisms): lacks effective inhibitory activity | NIC (Bact. ureolyticus): 0.035 ppm | levels needed to inhibit all the desired oral microrganisms [1]: about 0.99 ppm | NIC (Act. naeslundii): >12.8 ppm | NIC (Candida kefyr): >128 ppm | NIC (Bact. intermedius): 0.91 ppm | NIC (Strep.pyogenes): 0.009 ppm | NIC (Act. odontolyticus): 0.12 ppm | NIC (Candida albicans): >128 ppm | NIC (Strep. mitis): 0.33 ppm | NIC (G.vaginalis): 0.22 ppm | NIC (Peptostrepto. micros): >1.28 ppm | NIC (Porph. gingivalis): >1.28 ppm | NIC (Strep. agalactiæ): 0.22 ppm | NIC (Strep. milleri): 0.14 ppm | NIC (Strep mitior): 0.05 ppm | NIC (Candida tropicalis): >128 ppm | NIC (Lacto odontolyticus): 0.02 ppm | NIC (Fuso. nucleatum): 0.048 ppm | NIC (Strep. salivarius): 0.18 ppm | NIC (Strep. sanguis): 0.23 ppm | NIC (Act. actinomycetem): 0.02 ppm | NIC (Act. israelii): 0.53 ppm | mean zones (F nucleatum NCTC 10562): 29.38 mm | mean zones (A actinomyces NCTC 9709): 23.04 mm | mean zones (C albicans NCTC 3089): 0 mm | mean zones (W recta NCTC 11489): 28.19 mm | mean zones (C tropicalis NCTC 3114): 0 mm | mean zones (S sanguis NCTC 10904): 15.38 mm | mean zones (C kefyr NCTC 3106): 0 mm | mean zones (S mutans NCTC 11061): 18.36 mm | NIC (Staph.aureus): 0.13 ppm | NIC (Strep.mutans): 0.43 ppm

— patent EP0670711B1, “ANTIFUNGAL MOUTHCARE COMPOSITIONS” (AMBI Inc., priority 1992, dated 1994)
